Patent US20050143450A1, “Alkyl PCDF as a treatment for prostate cancer” (priority 2002, published 2005)

Key:
[1] = test system: ethoxyresorufin O-deethylase (EROD) activity in PC3 cells; test: Induction of EROD activity in PC3 cells; format: cell-based; conditions: 24-96 hr
Method: An androgen responsive prostate cancer cell line 22Rv1 and an androgen nonresponsive prostate cancer cell line PC3 were treated with TCDD and ethoxyresorufin O-deethylase (EROD) activity was measured.

hAR = biological target: T1, hAR (Homo sapiens, UniProt P10275); test: Hormone-induced transactivation in ZR-75 cells cotransfected with pPB and hAR; format: cell-based; conditions: cotreated with hormone plus TCDD
T1 construct: expressed in transfected cells; host or cells: ZR-75
T1 sequence (P10275 1-920): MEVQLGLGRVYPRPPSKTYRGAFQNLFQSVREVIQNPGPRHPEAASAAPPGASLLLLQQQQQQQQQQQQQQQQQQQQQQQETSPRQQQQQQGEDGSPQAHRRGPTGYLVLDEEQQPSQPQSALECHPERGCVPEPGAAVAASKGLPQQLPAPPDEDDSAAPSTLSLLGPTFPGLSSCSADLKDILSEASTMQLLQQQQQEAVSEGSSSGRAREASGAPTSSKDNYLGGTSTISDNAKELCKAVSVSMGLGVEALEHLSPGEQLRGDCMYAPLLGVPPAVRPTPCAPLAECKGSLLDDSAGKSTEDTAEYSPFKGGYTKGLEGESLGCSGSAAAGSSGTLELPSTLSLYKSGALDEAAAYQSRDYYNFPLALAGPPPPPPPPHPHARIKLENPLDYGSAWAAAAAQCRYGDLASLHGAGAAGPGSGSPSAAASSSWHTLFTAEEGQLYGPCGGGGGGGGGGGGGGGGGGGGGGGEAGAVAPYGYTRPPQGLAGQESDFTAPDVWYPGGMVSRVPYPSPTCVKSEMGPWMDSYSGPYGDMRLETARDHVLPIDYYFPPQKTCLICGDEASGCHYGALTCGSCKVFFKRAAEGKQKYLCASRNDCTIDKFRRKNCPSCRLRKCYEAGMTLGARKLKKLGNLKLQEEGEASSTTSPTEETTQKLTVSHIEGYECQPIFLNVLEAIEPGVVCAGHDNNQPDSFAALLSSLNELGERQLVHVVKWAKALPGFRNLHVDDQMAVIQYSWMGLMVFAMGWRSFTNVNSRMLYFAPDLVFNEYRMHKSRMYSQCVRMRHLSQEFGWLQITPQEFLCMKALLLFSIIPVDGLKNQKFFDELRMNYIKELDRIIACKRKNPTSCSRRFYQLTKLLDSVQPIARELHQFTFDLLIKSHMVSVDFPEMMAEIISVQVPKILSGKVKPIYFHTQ
Method: After 24 h, cells were transfected using Lipofectamine and Plus reagents (Invitrogen) according to manufacturer's instructions. LNCaP and ZR-75 cells were transfected with 500 ng/well of either reporter plasmid, and 250 ng/well of pcDNA3.1-β-gal (Invitrogen) as the internal control. In addition, ZR-75 cells were transfected with 500 ng hAR. Twenty-four hours after treatment, cells were harvested by scraping with 200 μL/well of reporter lysis buffer. Lysates were centrifuged at 40,000 g and luciferase and β-galactosidase activity was assayed with 30 μL of the supernatant extract per sample using a Lumicount luminometer (PerkinElmer, Boston, Mass.). Luciferase activity was normalized to β-galactosidase activity for each transfection well.

## Clc1cc2c(cc1Cl)Oc1cc(Cl)c(Cl)cc1O2 [TCDD, 2,3,7,8-tetrachloro-p-dioxin]
[1]; 1 nM
  EROD activity induction: did not induce activity
[1]; 10 nM, maximal after 96 hr
  EROD activity induction: induced a response
hAR
  effect on DHT-induced activity: not
  effect on E2-induced activity: inhibited
